Data as given in US11970478B1, “9-(2-hydroxyquinolin-3-yl)-10-(2-hydroxyethyl)-3,3,6,6-tetramethyl-3,4,6,7,9,10-hexahydroacridine1,8(2H,5H)-dione as an antimicrobial compound” (KING FAISAL UNIVERSITY, priority 2023, dated 2024).

Assays:
Conditions in all cases: after 10, 20, 40 and 60 minutes at all dilutions 1:100 to 1:800
[1] = test system: St. Aereus; assay: Antimicrobial activity by agar dilution, St. Aereus; format: cell-based, Staphylococcus aureus
Protocol: (§1) The antimicrobial properties of the synthesized compound 9-(2-hydroxyquinolin-3-yl)-10-(2-hydroxyethyl)-3,3,6,6-tetramethyl-3,4,6,7,9,10-hexahydroacridine1,8(2H,5H)-dione were studied by the method of agar dilution. Test solutions of each compound were prepared in a concentration of 1% using dimethylformamide as a solvent. Then they were diluted in a physiological solution to obtain the final experimental dilutions 1:100, 1:200, 1:400, and 1:800. The effect of these substances were compared with furacillin in a controllable study. The testing microbes used were gram positive bacteria St. Aereus, gram negative bacteria E. Coli and Ps. Aeruginosa, and Candida albicans fungi. The experiments used for this survey were meat-pentonlu agar (EPA) for cultivation of bacteria and Saburo environment for fungi. Each experiment used 1 ml of test solution on each plate 500 min. Add 2 drops of emulsified with microbes feel. All experimental samples were taken from the agar after 10, 20, 40, 60 minutes in the environment on the basis of Patrk planted. Bacteria were cultivated at a temperature of 37° C. for 1 day and the mushroom was kept in a thermostat for 2 hours at a temperature of 28° C. Then the results were checked.

[2] = test system: E. Coli; assay: Antimicrobial activity by agar dilution, E. Coli; format: cell-based, Escherichia coli
Protocol: as §1

[3] = test system: Ps. Aeruginosa; assay: Antimicrobial activity by agar dilution, Ps. Aeruginosa; format: cell-based, Pseudomonas aeruginosa
Protocol: as §1

[4] = test system: Candida albicans; assay: Antimicrobial activity by agar dilution, Candida albicans; format: cell-based
Protocol: as §1

Measured: inhibition activity (in words)

CC1(C)CC(=O)C2=C(C1)N(CCO)C1=C(C(=O)CC(C)(C)C1)C2c1cc2ccccc2nc1O [9-(2-hydroxyquinolin-3-yl)-10-(2-hydroxyethyl)-3,3,6,6-tetramethyl-3,4,6,7,9,10-hexahydroacridine1,8(2H,5H)-dione]
highest inhibition activity: [1] | [2] | [3] | [4]
